# Data reported in patent US12161688B2, “Treatment of inflammatory bowel disease with long acting glatiramer and adipose-derived stem cells” (STEM CELL MEDICINE LTD., priority 2016, dated 2024).
# Test system: DSS-induced IBD
# Experiment: DSS-induced inflammatory bowel disease (acute colitis) in mice
# Format: in vivo, C57BL/6 female mice
# Protocol: Glatiramer acetate (GA) and GA Depot administration: […] GA Depot was suspended in sterile water for injection (WFI) (B Braun, Melsumgen, Germany) and injected intramuscularly (IM) at 10 mg dose (doses of GA Depot are given according to amount of active ingredient, i.e. GA Depot 10 mg contains 10 mg GA) divided to two 5 mg doses on days 0 and 1 due to technical reasons (volume limitation). Animals: All animal studies were approved by local ethics committees. C57BL/6 female mice, 7-9 weeks old were randomized into control or treatment groups with similar mean weight Animals were given food and water ad libitum throughout the experiment. Cell culture: SVF was plated at a density of 2×10^6 cells per 75 cm^2. Cells were grown to 80% confluency, trypsinized and sub-cultured up to passage 3-4. Cells were then collected and analyzed by FACS for the markers: […] The cells were stored frozen in liquid nitrogen until use. For use, the cells were thawed and plated at a concentration of 50,000 cells/cm^2 and incubated overnight. Prior to cells intraperitoneal (IP) injection the cells were trypsinized, counted and prepared for injection at a concentration of 1×10^6 cell/100 ul PBS and kept in ice until use for a period no longer than 30 min. Inflammatory bowel disease (IBD) induction: A widely used IBD model in mice is the dextran sulfate sodium (DSS)-induced colitis. DSS administration in the mice drinking water leads to many of the events presumed to initiate and sustain human IBD (Boismenu and Chen (2000) J Leukoc Biol, 67:267-278). […] In brief, body weight, rectal bleeding (observation of bleeding signs on the anus or gross bleeding), stool consistency and survival were monitored daily. […] Fourteen (14) days following disease induction, mice were sacrificed and the large intestine was collected and evaluated for colon length and microscopic colonic damage. […] Statistical analysis: Each data set was analyzed using single-factor analysis of variance (ANOVA) followed by two-tailed, two-sample students' T test assuming unequal variances, n=10/group, +/-standard error.
substance,measurement,setting,value
"L-glutamic acid polymer with L-alanine, L-lysine and L-tyrosine, acetate (salt) [Copaxone®]",animals showing bleeding (Hemoccult test),day 5,50%
same,animals showing bleeding (Hemoccult test),day 10,20%
same,effect on IBD manifestations (overall conclusion),"mouse, in vivo",almost no effect
